Laboratory results reported in US10065934B2, “Substituted urea derivatives and pharmaceutical uses thereof” (SUNSHINE LAKE PHARMA CO., LTD., priority 2014, dated 2018).
Read-outs that look alike come from different tables or passages of the source. One block for each molecule: values may come before it.

Legend:
[1] = biological target: T1, FLT3 kinase (Homo sapiens, UniProt P36888); assay: In vitro enzymatic inhibitory activity (kinase reaction, FAM-labeled peptide); type: biochemical; conditions: in vitro enzymatic inhibition
T1 sequence (P36888 27-993): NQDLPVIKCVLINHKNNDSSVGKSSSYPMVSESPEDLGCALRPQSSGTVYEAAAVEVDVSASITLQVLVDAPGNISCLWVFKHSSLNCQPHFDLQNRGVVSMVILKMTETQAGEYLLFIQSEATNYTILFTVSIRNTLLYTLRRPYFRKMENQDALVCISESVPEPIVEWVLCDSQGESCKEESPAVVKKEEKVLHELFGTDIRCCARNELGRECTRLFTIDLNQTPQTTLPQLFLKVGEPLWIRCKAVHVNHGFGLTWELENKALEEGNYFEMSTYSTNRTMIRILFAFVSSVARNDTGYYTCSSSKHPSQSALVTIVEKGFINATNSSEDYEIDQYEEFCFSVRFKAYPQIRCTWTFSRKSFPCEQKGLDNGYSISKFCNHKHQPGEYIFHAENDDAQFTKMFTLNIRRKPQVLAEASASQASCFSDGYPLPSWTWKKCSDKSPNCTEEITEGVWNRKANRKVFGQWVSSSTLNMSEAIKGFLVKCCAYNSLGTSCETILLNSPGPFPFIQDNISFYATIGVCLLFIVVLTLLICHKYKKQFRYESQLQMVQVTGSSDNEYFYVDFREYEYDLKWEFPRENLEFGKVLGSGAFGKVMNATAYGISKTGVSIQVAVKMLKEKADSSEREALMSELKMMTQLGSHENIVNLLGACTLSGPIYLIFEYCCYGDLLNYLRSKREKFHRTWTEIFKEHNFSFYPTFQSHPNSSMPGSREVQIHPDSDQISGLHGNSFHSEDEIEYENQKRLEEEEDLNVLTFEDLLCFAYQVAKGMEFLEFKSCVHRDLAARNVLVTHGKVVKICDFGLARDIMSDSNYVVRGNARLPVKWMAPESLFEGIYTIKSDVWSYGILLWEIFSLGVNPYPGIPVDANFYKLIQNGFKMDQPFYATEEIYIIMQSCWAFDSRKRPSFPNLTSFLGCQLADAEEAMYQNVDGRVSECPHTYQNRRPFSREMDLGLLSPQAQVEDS

[2] = Evaluation of pharmacokinetic activity in male SD rats (iv and oral); type: in vivo; conditions: for Vd: read-out: Vss; for bioavailability: po 5 mg/kg vs iv 1 or 2 mg/kg
Protocol: 1. Preparation of the Test Compound Solutions
The test compound solutions were prepared using appropriate amounts of 5% DMSO, 5% KolliphorHS15 and 90% Saline to dissolve each compound completely.
140-190 g male SD rats were randomly divided into two groups. One group was administered through intravenous drug delivery with the dosage of 1.0 or 2.0 mg/kg, and the other group was administered by oral with the dosage of 5.0 mg/kg. For intravenous administration, caudal vein blood samples at the time points of 0.0833, 0.25, 0.5, 1.0, 2.0, 4.0, 6.0, 8.0 and 24 h were collected after drug administration (the time point of drug administration was set as 0 h); and for oral administration, caudal vein blood samples at the time points of 0.25, 0.5, 1.0, 2.0, 4.0, 6.0, 8.0 and 24 h were collected after drug administration (the time point of drug administration was set as 0 h). Appropriate range of standard curve was established according to the sample concentration, and the test compound concentrations in plasma sample were measured by LC-MS/MS analysis. Pharmacokinetic parameters were calculated by non-compartmental method using WinNonLin 6.3 software based on drug concentration-time curves.

[3] = tested on: MV-4-11 cell; assay: In vitro cytology inhibitory activity (MV-4-11 cell proliferation, cell viability luminescence); type: cell-based; conditions: Homo sapiens, MV4-11; MV-4-11 cells, 72 h incubation
Protocol: Cell assay condition was shown below:
a. A complete medium was prepared and mixed well. b. Cell was recovered, and cell lines of between about two generations in good condition of growth were selected. c. The cell culture flasks were removed from the incubator, and the labeled cell name on the bottles, culture medium type and cell algebra were checked. d. The cell suspension was pipette into a centrifuge tube, and centrifuged at 800-1000 rpm for 3-5 minutes. e. Cell supernatant of the centrifuge tube was aspirated. f. Appropriate volume of culture medium was added into the centrifuge tube, and the cells were resuspended by gentle pipetting uniform. g. Vi-Cell XR cytometer was used for count. h. The cell suspension was adjusted to the appropriate concentration. i. The cell suspension was added to the bottom wall of the white 96-well plate, 100 microliters/well. Cells name, kind of board density and date were detailed labeled, and the culture plate was placed in CO2 incubator overnight.
2. Preparation and Addition of the Test Compounds
i) Preparation of test compound plates by diluting to 10 concentrations with DMSO: first, the test compound stock solution was prepared by dissolving a weighed compound in DMSO to a concentration of 10 mM, and then diluted to the concentration of 4 mM, which was then diluted to the concentration of 0.4 mM used as the highest concentration for testing with DMSO. The highest concentration was sequentially followed by 3-fold dilution for a total of 10 concentrations. Staurosporine was the positive control drug. ii) Addition of test compounds: a. 0.5 μL of test compound prepared above in compound plate was added into the cell culture plate that had been incubated overnight. Then the culture plate was incubated in an incubator at 37° C. for 72 hours.
3. Detection and Analysis
a. 72 hours after the compound treatment, cells was observed under an inverted microscope morphology, and cell growth state in DMSO control well was normal, there was no contamination. b. The cell culture plate was placed in equilibrium at room temperature for 30 minutes. c. The cell viability detection reagent at 100 μL/well was placed into culture plate. d. The mixture in culture plate was mixed two minutes in the vibration plate machine to induce cell lysis. e. 96-well plate was placed for 10 minutes at room temperature, making it stable luminescent signal. f. White base film was pasted on the bottom of the culture plate, and the plate was tested by using Flexstation3 (related to: light, integration time 500 ms). g. Experimental results were recorded and analyzed.

SMILES: CC(C)(C)c1cc(NC(=O)Nc2ccc(C#Cc3ccc(OCCCN4CCC5(COC5)C4)cc3F)cc2)no1 [Example 8, 1-(4-((4-(3-(2-Oxa-6-azaspiro[3.4]octan-6-yl)propoxy)-2-fluorophenyl)ethynyl)phenyl)-3-(5-(tert-butyl)isoxazol-3-yl)urea]
IC50 [1]: 61 nM
IC50 [3]: 3.4 nM

SMILES: CN1CCN(CCOc2ccc(C#Cc3ccc(NC(=O)Nc4cc(C(C)(C)C)on4)cc3)cc2)CC1 [Example 12, 1-(5-(tert-Butyl)isoxazol-3-yl)-3-(4-((4-(2-(4-methylpiperazin-1-yl)ethoxy)phenyl)ethynyl)phenyl)urea]
IC50 [1]: 28 nM
IC50 [3]: 1.6 nM

SMILES: CN1CCN(CCCOc2ccc(C#Cc3ccc(NC(=O)Nc4cc(C(C)(C)C)on4)cc3)cc2)CC1 [Example 13, 1-(5-(tert-Butyl)isoxazol-3-yl)-3-(4-((4-(3-(4-methylpiperazin-1-yl)propoxy)phenyl)ethynyl)phenyl)urea]
IC50 [1]: 23 nM
IC50 [3]: 2.4 nM

SMILES: CN(C)C1CCN(CCOc2ccc(C#Cc3ccc(NC(=O)Nc4cc(C(C)(C)C)on4)cc3)cc2)CC1 [Example 14, 1-(5-(tert-Butyl)isoxazol-3-yl)-3-(4-((4-(2-(4-(dimethylamino)piperidin-1-yl)ethoxy)phenyl)ethynyl)phenyl)urea]
IC50 [1]: 72 nM
IC50 [3]: 11.4 nM

SMILES: COc1cc(C#Cc2ccc(NC(=O)Nc3cc(C(C)(C)C)on3)cc2)ccc1OCCCN1CCOCC1 [Example 20, 1-(5-(tert-Butyl)isoxazol-3-yl)-3-(4-((3-methoxy-4-(3-morpholinopropoxy)phenyl)ethynyl)phenyl)urea]
IC50 [1]: 110 nM

SMILES: CC(C)(C)c1cc(NC(=O)Nc2ccc(C#Cc3ccc(OCCN4C[C@@H]5OCCO[C@@H]5C4)cc3)cc2)no1 [Example 24, 1-(5-(tert-Butyl)isoxazol-3-yl)-3-(4-((4-(2-((4aR,7aS)-tetrahydro-2H-[1,4]dioxino[2,3-c]pyrro 1-6(3H)-yl)ethoxy)phenyl)ethynyl)phenyl)urea]
IC50 [1]: 160 nM
AUClast ([2]; po, 5 mg/kg): 6770 ng·h/mL
Cmax ([2]; po, 5 mg/kg): 862 ng/mL
T1/2 ([2]; po, 5 mg/kg): 3.9 h
AUC(0-inf) ([2]; rat, plasma, iv, 1 mg/kg): 2160 ng·h/mL
AUC(0-t) ([2]; rat, plasma, iv, 1 mg/kg): 2130 ng·h/mL
Tmax ([2]; rat, plasma, iv, 1 mg/kg): 0.083 h
half-life ([2]; rat, plasma, iv, 1 mg/kg): 4.51 h
Cmax ([2]; rat, plasma, iv, 1 mg/kg, read-out: Cmax): 1340 ng/mL
Vd ([2]; rat, plasma, iv, 1 mg/kg): 1.69 L/kg
bioavailability ([2]; rat, plasma): 63.6%
AUC(0-inf) ([2]; rat, plasma, po, 5 mg/kg): 6870 ng·h/mL
Tmax ([2]; rat, plasma, po, 5 mg/kg): 4 h

SMILES: CC(C)(C)c1cc(NC(=O)Nc2ccc(C#Cc3ccc(OCCN4CCOCC4)cc3)cc2)no1 [Example 25, 1-(5-(tert-Butyl)isoxazol-3-yl)-3-(4-((4-(2-morpholinoethoxy)phenyl)ethynyl)phenyl)urea]
IC50 [1]: 84 nM

Next, values leading:

IC50 [1]: 39 nM
T1/2 ([2]; po, 5 mg/kg): 5.86 h
AUC(0-inf) ([2]; rat, plasma, iv, 2 mg/kg): 6940 ng·h/mL
AUC(0-t) ([2]; rat, plasma, iv, 2 mg/kg): 6570 ng·h/mL
Tmax ([2]; rat, plasma, iv, 2 mg/kg): 0.08 h
half-life ([2]; rat, plasma, iv, 2 mg/kg): 6.23 h
Cmax ([2]; rat, plasma, iv, 2 mg/kg, read-out: Cmax): 2690 ng/mL
Vd ([2]; rat, plasma, iv, 2 mg/kg): 1.83 L/kg
bioavailability ([2]; rat, plasma): 69.3%
AUC(0-inf) ([2]; rat, plasma, po, 5 mg/kg): 12000 ng·h/mL
AUC(0-t) ([2]; rat, plasma, po, 5 mg/kg): 11300 ng·h/mL
Tmax ([2]; rat, plasma, po, 5 mg/kg): 2.67 h
Cmax ([2]; rat, plasma, po, 5 mg/kg, read-out: Cmax): 1370 ng/mL
IC50 [3]: 5.2 nM
SMILES: CC(C)(C)c1cc(NC(=O)Nc2ccc(C#Cc3ccc(OCCCN4CCOCC4)cc3F)cc2)no1 [Example 4, 1-(5-(tert-Butyl)isoxazol-3-yl)-3-(4-((2-fluoro-4-(3-morpholinopropoxy)phenyl)ethynyl)phenyl) urea]

IC50 [1]: 94 nM
IC50 [3]: 3.1 nM
SMILES: CC(C)(C)c1cc(NC(=O)Nc2ccc(C#Cc3cnn4ccc(OCCCN5CCOCC5)nc34)cc2)no1 [Example 6, 1-(5-(tert-Butyl)isoxazol-3-yl)-3-(4-((5-(3-morpholinopropoxy)pyrazolo[1,5-a]pyrimidin-3-yl)ethynyl)phenyl)urea]

IC50 [1]: 102 nM
SMILES: CC(C)(C)c1cc(NC(=O)Nc2ccc(C#Cc3cnn4c(OCCCN5CCOCC5)ccnc34)cc2)no1 [Example 15, 1-(5-(tert-Butyl)isoxazol-3-yl)-3-(4-((7-(3-morpholinopropoxy)pyrazolo[1,5-a]pyrimidin-3-yl)ethynyl)phenyl)urea]
